Assay results as given in patent US6294526A, “Use of flavone derivatives for induction of β-lactam-sensitivity of MRSA” (priority 1998, dated 2001).
In brackets after ≈: the same amount, converted by molar mass. Like-named read-outs stand apart in the source and are kept apart here. Values belong to the compound of their own block, whether it stands above or below them.

Legend:
[1] = test system: MRSA; experiment: antibacterial activity (MIC) by agar plate dilution method, MRSA strains; format: cell-based, methicillin-resistant Staphylococcus aureus; conditions: Staphylococcus aureus, 20 h
Description: (§1) The screening of the present invention may be carried out according to the agar plate dilution method designated by the Japan Society of Chemotherapy (Chemotherapy 29(1), 76-79 (1981)). Mueller-Hinton agar base semi-synthetic medium may be used for a plate culture medium for a sensitivity test together with an inoculating bacteria solution which may be prepared by culturing bacteria to be tested at 37° C. for 20 hours diluted with 8.5% by isotonic sodium chloride solution to 10^6 CFU/ml. Diluted β-lactam solutions are prepared by two times serial dilution. 1 ml of the diluted β-lactam solution and 1 ml of a predetermined concentration of a sample to be tested are added to 8 ml of the plate culture medium for a sensitivity test. To the resultant plate culture medium for sensitivity test, the bacteria are inoculated using a microplanter (SAKUMASEISAKUSYO Co.), cultured for 20 hours at 37° C. followed by assessing for a minimum inhibition concentration (MIC).
(§2) (A) Antibacterial activities of ether extract from Scutellaria barbata, SB-1 (isolated from Scutellaria barbata), apigenin (authentic sample) and luteolin (authentic sample) were shown in Table 1.
(§3) Flavones were dissolved in methanol and the others were dissolved in 0.1 N NaOH. A method for determination of antibacterial activity is, as described above, an agar plate dilution method designated by the Japan Society of Chemotherapy (Chemotherapy 29(1), 76-79 (1981)) to determine MIC value. MIC80 is a concentration at which a strain is prohibited to proliferate by 80% and MIC50 is a concentration at which a strain is prohibited to proliferate by 50%.

[2] = test system: MSSA; experiment: antibacterial activity (MIC) by agar plate dilution method, MSSA strains; format: cell-based, Methicillin-sensitive Staphylooccus aureus; conditions: Staphylococcus aureus, 20 h
Description: as §1, §2, §3

[3] = test system: MRSA and MSSA; experiment: antibacterial activity (MIC) by agar plate dilution method, MRSA and MSSA strains together; format: cell-based, Staphylococcus aureus; conditions: for antibacterial activity (in words): Table 2; for MIC: Staphylococcus aureus, 20 h, read-out: MIC values (text summary of Table 2)
Description: as §1, with “(MIC). […]” for “(MIC).”
Antibacterial activity is determined for flavones including flavone, flavonol, flavanone, isoflavone, catechin and calchone, as follows:
as §3

[4] = test system: MRSA No. 5; experiment: effect of flavone on antibacterial activity of antibiotics against MRSA No. 5 in bouillon (broth microdilution); format: cell-based, methicillin-resistant Staphylococcus aureus
Description: Alternatively, the screening of the present invention may be carried out according to the broth microdilution method designated by the Japan Society of Chemotherapy (Chemotherapy 38(1), 102-105 (1990)). Muellar-Hinton broth is used as a culture medium for the sensitivity test, and 50 mg/ml of calcium(Ca) ion, 25 mg/ml of magnesium(Mg) ion, and 2% sodium chloride (NaCl) are added thereto. An inoculating bacteria solution may be prepared by culturing bacteria to be tested in Mueller-Hinton broth at 37° C. for 20 hours and diluting with Mueller-Hinton broth to 10^5 CFU/ml final concentration of inoculating bacteria. Diluted β-lactam solution is prepared by two times serial dilution series. 10 μl of the diluted β-lactam solution and 10 μl of a predetermined concentration of a sample of bacteria to be tested are added to mix with 80 μl of the culture medium for the sensitivity test. To the resultant plate culture medium for sensitivity test, the inoculating bacteria are added and culturing is carried out for 20 hours at 37° C. and then assessment for a minimum inhibition concentration (MIC) is carried out. A minimum inhibition concentration means the minimum concentration of β-lactam at which growth of bacteria is not recognized by the naked eye.
(G) Antibacterial activity of 6 β-lactams, that is, cephalothin, cefuroxime, cefotaxime, cefoxitin, streptomycin and vancomycin, against MRSA in the presence of 0.5 mM flavone was studied in bouillon.
Muellar-Hinton broth was used as a culture medium for the sensitivity test, and 50 mg/ml of calcium (Ca) ion, 25 mg/ml of maqnesium (Mg) ion, 2% sodium chloride (NaCl) were added thereto. An inoculating bacteria solution was prepared by culturing bacteria to be tested with Mueller-Hinton broth at 37° C. for 20 hours and diluting with Mueller-Hinton broth to 10^5 CFU/ml final concentration of inoculating bacteria. Diluted β-lactam solutions were prepared in two times serial dilutions starting from 10 mM. Ten microliters of the diluted β-lactam solution and 10 μl of 5 mM of flavone were mixed with 80 μl of the culture medium for the sensitivity test in a microplate having U-shaped wells and samples of bacteria to be tested were added thereto. The mixture was cultured 20 hours at 37° C. and then assessed for minimum inhibition concentration (MIC). Minimum inhibition concentration means minimum concentration of a β-lactum at which growth of bacteria is inhibited to the extent that bacteria is not recognized by the naked eye.

[5] = test system: MRSA; experiment: antibacterial activity of antibiotics alone and in the presence of apigenin (4 μg/ml), MRSA; format: cell-based, methicillin-resistant Staphylococcus aureus; conditions: Staphylococcus aureus, MRSA, 20 h
Description: as §1
(D) Then use of 4 μg/ml of apigenin and other antibiotics at the same time was studied. The antibiotics are penicillin , ampicillin, cephalothin, cefoxitin, cefuroxime, cefotaxime, vancomycin, streptomycin, chloramphenicol, kanamycin, erythromycin, nalixic acid and tetracycline.

[6] = MRSA (20 strains), read-out: MIC50
[7] = MSSA (7 strains), read-out: MIC50
[8] = MSSA, MSSA (7 strains), range over strains, read-out: MIC
[9] = antibiotic with Apigenin (4 μg/ml)

MIC50 [1, 6]: 250 µg/mL (≈ 867 µM)
MIC ([1]; MRSA, MRSA (20 strains), range over strains, read-out: MIC): 250 µg/mL (≈ 867 µM)
MIC50 [2, 7]: 250 µg/mL (≈ 867 µM)
MIC [2, 8]: 250 µg/mL (≈ 867 µM)
MIC ([3]; MRSA and MSSA, "in each case"): 250 µg/mL (≈ 867 µM)
Structure (SMILES): O=C1C[C@@H](c2ccc(O)c(O)c2)Oc2cc(O)cc(O)c21 [Eriodictyol, eriodictyol]
antibacterial activity (in words) ([3]; MRSA and MSSA): showed antibacterial activity

MIC50 [1, 6]: 250 µg/mL (≈ 873 µM)
MIC50 [2, 7]: 250 µg/mL (≈ 873 µM)
MIC ([3]; MRSA and MSSA, "in each case"): 250 µg/mL (≈ 873 µM)
Structure (SMILES): O=c1c(O)c(-c2ccc(O)cc2)oc2cc(O)cc(O)c12 [Kaempferol, kaempferol]
antibacterial activity (in words) ([3]; MRSA and MSSA): showed antibacterial activity
antibacterial activity (in words) ([3]; MRSA and MSSA, listed as kaemferol): showed activity

Structure (SMILES): O=c1cc(-c2ccc(O)c(O)c2)oc2cc(O)cc(O)c12 [Luteolin, luteolin]
MIC50 ([1]; MRSA): 125 µg/mL (≈ 437 µM)
MIC ([1]; MRSA, MRSA (20 strains), range over strains): 62.5 to 125 µg/mL (≈ 218 to 437 µM)
MIC ([1]; MRSA, MRSA strain No. 1): 125 µg/mL (≈ 437 µM)
MIC ([1]; MRSA, MRSA strain No. 2): 125 µg/mL (≈ 437 µM)
MIC ([1]; MRSA, MRSA strain No. 3): 125 µg/mL (≈ 437 µM)
MIC ([1]; MRSA, MRSA strain No. 4): 125 µg/mL (≈ 437 µM)
MIC ([1]; MRSA, MRSA strain No. 5): 62.5 µg/mL (≈ 218 µM)
MIC ([1]; MRSA, MRSA strain No. 6): 62.5 µg/mL (≈ 218 µM)
MIC ([1]; MRSA, MRSA strain No. 7): 62.5 µg/mL (≈ 218 µM)
MIC ([1]; MRSA, MRSA strain No. 8): 62.5 µg/mL (≈ 218 µM)
MIC ([1]; MRSA, MRSA strain No. 9): 62.5 µg/mL (≈ 218 µM)
MIC ([1]; MRSA, MRSA strain No. 10): 62.5 µg/mL (≈ 218 µM)
MIC ([1]; MRSA, MRSA strain No. 11): 125 µg/mL (≈ 437 µM)
MIC ([1]; MRSA, MRSA strain No. 12): 125 µg/mL (≈ 437 µM)
MIC ([1]; MRSA, MRSA strain No. 13): 62.5 µg/mL (≈ 218 µM)
MIC ([1]; MRSA, MRSA strain No. 14): 125 µg/mL (≈ 437 µM)
MIC ([1]; MRSA, MRSA strain No. 15): 125 µg/mL (≈ 437 µM)
MIC ([1]; MRSA, MRSA strain No. 16): 125 µg/mL (≈ 437 µM)
MIC ([1]; MRSA, MRSA strain No. 17): 125 µg/mL (≈ 437 µM)
MIC ([1]; MRSA, MRSA strain No. 18): 125 µg/mL (≈ 437 µM)
MIC ([1]; MRSA, MRSA strain No. 19): 125 µg/mL (≈ 437 µM)
MIC ([1]; MRSA, MRSA strain No. 20): 62.5 µg/mL (≈ 218 µM)
MIC50 ([2]; MSSA): 125 µg/mL (≈ 437 µM)
MIC ([2]; MSSA, MSSA (7 strains), range over strains): 62.5 to 125 µg/mL (≈ 218 to 437 µM)
MIC ([2]; MSSA, MSSA strain No. 21): 125 µg/mL (≈ 437 µM)
MIC ([2]; MSSA, MSSA strain No. 22): 125 µg/mL (≈ 437 µM)
MIC ([2]; MSSA, MSSA strain No. 23): 62.5 µg/mL (≈ 218 µM)
MIC ([2]; MSSA, MSSA strain No. 24): 62.5 µg/mL (≈ 218 µM)
MIC ([2]; MSSA, MSSA strain No. 25): 125 µg/mL (≈ 437 µM)
MIC ([2]; MSSA, MSSA strain No. 26): 125 µg/mL (≈ 437 µM)
MIC ([2]; MSSA, MSSA strain No. 27): 62.5 µg/mL (≈ 218 µM)
antibacterial activity (in words) ([3]; MRSA and MSSA): showed antibacterial activity

MIC50 [1, 6]: 250 µg/mL (≈ 912 µM)
MIC50 [2, 7]: 125 µg/mL (≈ 456 µM)
MIC [2, 8]: 125 to 250 µg/mL (≈ 456 to 912 µM)
MIC ([3]; MRSA and MSSA, "in each case"): 250 µg/mL (≈ 912 µM)
Structure (SMILES): O=C(CCc1ccc(O)cc1)c1c(O)cc(O)cc1O [Phloretin, phloretin]
antibacterial activity (in words) ([3]; MRSA and MSSA): showed activity
antibacterial activity (in words) ([3]; MRSA and MSSA, listed as phioretin): showed antibacterial activity

Structure (SMILES): O=c1c(O)c(-c2ccc(O)c(O)c2)oc2cc(O)cc(O)c12 [Quercetin, quercetin]
MIC50 ([1]; MRSA): 250 µg/mL (≈ 827 µM)
MIC50 [2, 7]: 250 µg/mL (≈ 827 µM)
antibacterial activity (in words) ([3]; MRSA and MSSA): showed antibacterial activity
MIC [3]: 250 µg/mL (≈ 827 µM)

MIC50 [1, 6]: 125 µg/mL (≈ 437 µM)
MIC50 [2, 7]: > 250 µg/mL
MIC ([3]; MRSA and MSSA, "in each case"): 250 µg/mL (≈ 873 µM)
Structure (SMILES): COc1cc(O)c2c(c1)OC(c1ccc(O)cc1)CC2=O (stereo not drawn) [Sakranetin, sakranetin]
antibacterial activity (in words) ([3]; MRSA and MSSA): showed antibacterial activity

Structure (SMILES): CN[C@H](CC(C)C)C(=O)N[C@H]1C(=O)N[C@@H](CC(N)=O)C(=O)N[C@H]2C(=O)N[C@H]3C(=O)N[C@H](C(=O)N[C@H](C(=O)O)c4cc(O)cc(O)c4-c4cc3ccc4O)[C@H](O)c3ccc(c(Cl)c3)Oc3cc2cc(c3O[C@@H]2O[C@H](CO)[C@@H](O)[C@H](O)[C@H]2O[C@H]2C[C@](C)(N)[C@H](O)[C@H](C)O2)Oc2ccc(cc2Cl)[C@H]1O [Vancomycin, vancomycin]
MIC ([4]; Staphylococcus aureus, MRSA, 20 h, Concentration of flavone 0.5 mM): < 0.98 µM
inhibitory effect on resistance of MRSA No.5 (in words) ([4]; in the presence of flavone 0.5 mM): appeared not to be showed
MIC ([5]; Antibiotics alone): 0.98 to 2 µg/mL
MIC50 ([5]; Antibiotics alone): 0.98 µg/mL
MIC [5, 9]: 0.49 to 0.98 µg/mL
MIC50 [5, 9]: 0.49 µg/mL
